# Source: patent US20220296610A1, “COMPOSITIONS AND METHODS FOR TREATMENT OF INFECTION AND NOVEL COSMECEUTICAL PREPARATIONS” (priority 2017, published 2022)
# Where “and” joins values, the source holds several entries; their conditions need not be identical. Equal values may be shown once. Entries after “also recorded” stand apart in the source; their conditions may differ.
# Legend:
# [1] = test system: canine basal cell carcinoma; assay type: in vivo, dog
# Text: Differential diagnoses included virus induced lesions such as warts which are caused by papillomaviruses, and are thus an example of anti-microbial/anti-viral activity.
# Soft tissue sarcoma = assay: Intratumoral treatment of canine cancer patient, soft tissue sarcoma; assay type: in vivo, dog; details: Patient #2
# Experimental: (§1) A study was performed using NVX-207 on a canine squamous cell carcinoma of the nasal plane. […] Histology was confirmed by biopsy before treatment. Prior to each treatment, the dog was physically examined and routine blood counts and serum chemistry analyses were performed. Tumor measurements were obtained using callipers at each treatment. Tumor size was determined by the longest diameter of the target lesion or by calculating the mean of the longest diameters of the lesion treated. Tumor response was classified as stable (less than 50% change), partial—(decrease by >50%) or as a complete response if no palpable or visible evidence of tumor was available. Intralesional treatment of the patient comprised local infiltration of the local tumor, including 1 cm of the surrounding tissue, with NVX-207 in combination with cisplatin. […] Tumor recurrence was observed 18 months later. […] No further complications were observed.
# (§2) Patients 1, 2, and 3 correspond to the dogs described above with squamous, soft tissue, and mammary carcinoma, respectively. Tumor size and tumor responses were determined as in described above. Intralesional treatment of the patients comprised local infiltration of the local tumor including 1 cm of the surrounding tissue—if applicable—with NVX-207 alone (for patients #2-#4) or in combination with cisplatin (patient #1, see also FIG. 3). […]
# Mammary carcinoma = assay: Intratumoral treatment of canine cancer patient, mammary carcinoma; assay type: in vivo, dog; details: Patient #3, NVX-207 alone 10 mg/ml in 2-hydroxypropyl-γ-cyclodextrin
# Experimental: as §1, §2
# [2] = test system: Sweat gland adenocarcinoma; assay: Intratumoral treatment of canine cancer patient, sweat gland adenocarcinoma; assay type: in vivo, dog; details: Patient #4, NVX-207 alone 10 mg/ml in 2-hydroxypropyl-γ-cyclodextrin
# Experimental: as §1, §2
# canine cancer patients = assay: Inflammation and infection after repeated intralesional injections in dogs; assay type: in vivo, dog; details: intratumoral treatment of canine malignancies
# Text: FIGS. 3A-D show the effects of intratumoral treatment of NVX-207 in various spontaneously arising canine malignancies (before and after pictures). […] FIGS. 3B-D show NVX-207 treatment effects in a canine mammary carcinoma and two separate cases of soft tissue sarcoma, respectively. […] Microbial infections (with bacteria, fungi, viruses or protozoa) usually almost invariably accompany multiple injections under similar non-sterile conditions, because the coat of the animal cannot be efficiently sterilized. This in turn leads to unwanted treatment interruptions.
# FIGS. 3B-D show NVX-207 treatment effects in a canine mammary carcinoma and two separate cases of soft tissue sarcoma, respectively. […] Microbial infections (with bacteria, fungi, viruses or protozoa) usually almost invariably accompany multiple injections under similar non-sterile conditions, because the coat of the animal cannot be efficiently sterilized. This in turn leads to unwanted treatment interruptions.
# As noted above, strong evidence for an antibacterial activity of NVX-207 also comes from the canine cancer treatments. Dogs were treated over several months by repeated intralesional and peritumoral injections of NVX-207. […] This is highly unusual, since intralesional treatments under the same conditions are usually associated with a high incidence of serious local soft tissue infections leading to treatment interruptions. […]
# [3] = test system: human umbilical vein endothelial cells (HUVEC); assay: Survival of endothelial cell cultures at 80% and 30% confluency; assay type: cell-based; details: 2.5 μM
# Experimental: (§3) All cells were treated with 2.5 μM NVX-207. Percentage (means±S.E., n=3) of control-treated cells are given. […] Mean survival in NVX-207 treated fibroblasts at 80% confluency was 92% (S.E.=3.8) versus 3.8% mean survival (S.E.=0.4) at 30% confluency. […] HUVECs, keratinocytes and fibroblast cells were obtained from Lonza GmbH (Wuppertal, Germany) and cultivated according to the manufacturer's instructions.
# (§4) The IC50 value of betulinic acid in human keratinocytes was recently determined to be ˜5.0 μg/ml (Tino Galgon al., Exp Dermatol. 14:736-43, 2005), while the IC50 of NVX-207 is ˜0.7 μg/ml. Consequently, the IC50 value of NVX-207 was almost 10-fold lower compared to betulinic acid on a molar basis. […] Under normal physiological circumstances, the endothelium, as well as fibroblasts and keratinocytes of the tissue like normal skin, show relatively low turn-over and limited cell divisions to maintain tissue integrity. […] Angiogenesis also plays a role in the pathogenesis of rosacea and a topical angiogenesis inhibitor (dobesilate) for treatment of rosacea has been described. Local inhibition of angiogenic factors function may prevent skin angiogenesis and inflammation in rosacea and other angiogenesis-dependent skin diseases in which a dense network of new vessels is produced and inflammatory cells are present. […]
# human fibroblasts = assay: Survival of fibroblast cultures at 80% and 30% confluency; assay type: cell-based; details: 2.5 μM; 30% vs 80% confluency
# Experimental: as §3, §4
# human keratinocytes = assay: Survival of keratinocyte cultures at 80% and 30% confluency; assay type: cell-based; details: 2.5 μM; 30% vs 80% confluency
# Experimental: as §3, §4
# [4] = test system: bacteria obtained from the skin surface of an individual; assay: Filter disk growth inhibition on LB-agar plates; assay type: cell-based
# Experimental: 10 mm filter disks (numbered 1 to 4) were soaked in 10 μl of 10.0, 5.0, 2.5, and 1.25 mg/ml of NVX-207, respectively, and placed on LB-Agar plates on which a skin bacterial isolate had been plated. 15 ml of LB/Agar was used for pouring one plate. Control disks were soaked in 10 μl of the corresponding solvent and paced in the center of the plates. LB-Agar plates were then cultivated over night at 30° C. and bacterial growth was monitored by comparing growth inhibition zones around the soaked disks. […]
# Antibacterial effects of NVX-207 were tested against bacteria obtained from the skin surface of an individual. NVX-207 was used either as a cyclodextrin formulation (NVX-207 (at 10 mg/ml final concentration) was formulated in 2-hydroxypropyl-gamma-cyclodextrin (at 150 mg/ml final concentration) in water) (FIG. 6A), or a Tween 80/Ethanol formulation (described in Example 2) (FIG. 6B). Filter disks 1 to 4 were soaked in 10 μl of 10.0, 5.0, 2.5, and 1.25 mg/ml of NVX-207, respectively, and placed on LB-agar plates (total volume of 15 ml LB-agar per plate) on which a skin bacterial isolate had been plated at low density. Control disks placed in the center of the plates were soaked in 10 μl of the corresponding solvent. LB-Agar plates were then cultivated over night at 30° C. and bacterial growth was examined after 18 hours. […]
# [5] = test system: human hyperkeratotic lesion with an inflammatory component; assay: Topical treatment of human hyperkeratotic lesion; assay type: in vivo; details: 1% topical solution
# pig skin = details: in vivo, 2 weeks
# Text: Skin areas were visually inspected every day.
# Skin areas were visually inspected every day. Photographs were taken at three day intervals. […] On day 14, pigs were anesthetized with ketamine and azaperon, and euthanized by intracardial application of T61®.
smiles,measurement,setting,value
"C=C(C)[C@@H]1CC[C@]2(C(=O)OCC(N)(CO)CO)CC[C@]3(C)[C@H](CC[C@@H]4[C@@]5(C)CC[C@H](OC(C)=O)C(C)(C)[C@@H]5CC[C@]43C)[C@@H]12 [NVX-207, 3-O-acetylbetulinic acid-2-amino-3-hydroxy-2-hydroxymethylpropyl ester]",reduction of lesion,"[1]; 1% topical solution every second to third day, after 3 weeks",about 90%
same,inflammation or infection at the treatment site,"[1]; dog, in vivo",absence of inflammation or infection
same,"OS, overall survival time",Soft tissue sarcoma,15 months
same,Tumor response,"Soft tissue sarcoma; NVX-207 alone 10 mg/ml in 2-hydroxypropyl-γ-cyclodextrin, intratumoral","PR (PR, partial remission)"
same,Tumor response,Mammary carcinoma,"SD (SD, stable disease)"
same,Tumor response,[2],"SD (SD, stable disease)"
same,treatment-related inflammation,canine cancer patients,completely prevented
same,more effective in sub-confluent (30%) than nearly confluent (80%) endothelial cells,[3],~5 fold
same,more active against proliferating human fibroblasts,human fibroblasts,over 20 fold
same,more active against proliferating keratinocytes,human keratinocytes,~6 fold
same,estimated concentration at which strong inhibitory effects were seen,"[4]; Tween/Ethanol formulation, assumed distribution volume ~2.5 ml",1 µg/mL and 1.0 µg/mL
same,final concentration at which growth inhibition was seen,"[4]; cyclodextrin formulation, distribution volume approximately 1 ml",~100 µg/mL
same,side effects on treated skin,[5],"No deleterious (toxic) effects; also recorded: no reddening, inflammation or any side effects"
same,reduction of lesion,[5]; next day after only one treatment,> 80%
same,macroscopic skin irritations,pig skin,No macroscopic NVX-207 related skin irritations
